What all share (format): cell-based
Conditions in all cases: 24 hours

The test system of assay [1] is SPARC. In words: Immunoblot of SPARC in conditioned media of human TM cells. The procedure:
(§1) FIGS. 5A-E. AICAR suppresses ECM proteins in primary human TM cells under basal and TGF-β2 stimulatory conditions. (A) Representative immunoblots of ECM proteins from conditioned media (CM) of human TM cells treated for 24 hours with PBS vehicle or 0.5 mM AICAR and (B) integrated band intensities calculated from those immunoblots. (C) Representative immunoblots of ECM proteins from CM of human TM cells under stimulation with 2.5 ng/mL TGF-β2. Cells were pre-incubated for 1 hour with PBS or 0.5 mM AICAR prior to full 24-hour treatment. (D) Mean integrated band intensities. Data in panels B and D are expressed as mean±SEM (*p<0.05 vs. PBS vehicle by student t-test; n=5-7). (E) Representative 10% acrylamide gels stained with Coomassie Brilliant Blue as a loading control. […]
(§2) At the conclusion of each experiment for matricellular and ECM protein detection, conditioned media (CM) from TM cell cultures was harvested and centrifuged at 5000 rpm for 10 minutes at 4° C. The supernatant was then concentrated (Amicon Ultra-4 Filter Unit, 10 kDa; Millipore, Milford, Mass.), and protein content quantified using the DC Protein Assay kit adhering to manufacturer's protocols (Bio-Rad, Hercules, Calif.). […] Samples were then centrifuged at 14,000 rpm for 15 minutes at 4° C. and protein content quantified. […]

In assay [2] the test system is TSP-1. In words: Immunoblot of TSP-1 in conditioned media of human TM cells. The procedure: as §1, §2
Assay [3] relates to collagen IV. In words: Immunoblot of collagen IV in conditioned media of human TM cells. The procedure:
as §1, §2

In assay [4] the test system is laminin. In words: Immunoblot of laminin in conditioned media of human TM cells. As to the method:
as §1, §2

Setting [5] is: 0.5 mM AICAR vs PBS vehicle, basal.
[6] abbreviates: 0.5 mM AICAR, under TGF-β2 stimulation with 2.5 ng/mL.

`NC(=O)c1ncn([C@@H]2O[C@H](CO)[C@@H](O)[C@H]2O)c1N` [AICAR, 5-Aminoimidazole-4-carboxamide riboside]: in assay [1] (setting [5]), the “change in SPARC (mean integrated band intensity)” value is “no change”. Further, the “decrease in SPARC level” value in assay [1] (setting [6]) was 64%. Besides, in assay [2] (setting [5]), the “change in TSP-1 (mean integrated band intensity)” value is reported as “no change”. The “change in TSP-1 levels” value in assay [2] (setting [6]) is on record as “no change”. Moreover, the “decrease in collagen IV (mean integrated band intensity)” value in assay [3] (setting [5]) is on record as 52%. Moreover, the “decrease in collagen IV level” value in assay [3] (setting [6]) was found to be 34%. For the same molecule, the “decrease in laminin (mean integrated band intensity)” value in assay [4] (setting [5]) was found to be 64%. In addition, the “decrease in laminin level” value in assay [4] (setting [6]) is on record as 33%.

(Values after US20170020909A1, “METHODS OF TREATING GLAUCOMA USING AMP-ACTIVATED PROTEIN KINASE (AMPK) ACTIVATORS” (Massachusetts Eye and Ear Infirmary, priority 2014, published 2017).)
